Assay results published in publication PMC11013252, “Exploration of the Antibacterial and Anti-Inflammatory Activity of a Novel Antimicrobial Peptide Brevinin-1BW” (Molecules, 2024).
In brackets after ≈: the same amount, converted by molar mass. Read-outs that look alike come from different tables or passages of the source. Positions of bridges follow the written chain, without caps; N, C: chain ends. Residues, ends and D or L forms follow the SMILES beside them.

What was measured:
E. faecalis (ATCC29212) = assay: microbe, parasite or virus in culture; type: cell-based, Enterococcus faecalis; conditions: ATCC29212, 18 h
Experimental: (§1) The minimum inhibitory concentration (MIC) of the Brevinin-1BW was measured in 96-well microtiter plates according to the Clinical and Laboratory Standards Institute (CLSI). The activated strains were treated with Mueller Hinton Agar (MHA) solid medium. Single colonies were picked and expanded to the logarithmic growth phase, and the solution was diluted to 2 × 10^6 CFU/mL using the McFarland turbidity standard. The MIC was determined with the two-fold dilution method. Briefly, 50 μL of Mueller Hinton (MH) medium was added to a 96-well plate in advance. Then, 50 μL of AMP solution was added to the first well, and 50 μL was pipetted into the next well after mixing using a row gun, while 50 μL was discarded from the last well. Final concentrations of Brevinin-1BW were 100, 50, 25, 12.5, 6.25, and 3.125 μg/mL. A 50 μL volume of the diluted bacterial solution was added, and the final concentration of the bacterial solution was 1 × 10^6 CFU/mL. This was then placed into a 37 °C incubator for 18 h until the next day to observe the degree of turbidity of the 96-well plate and measure the absorbance of the wells at 600 nm with a multifunctional microplate reader (SpectraMax iD5, Molecular Devices, Sunnyvale, CA, USA). The absence of turbidity and the measured concentration of absorbance being less than the opposing group was taken as the MIC. The positive control used ampicillin at the same final concentration as Brevinin-1BW, the negative control used 50 μL of MH medium mixed with 50 μL of 2 × 10^6 CFU/mL bacterial solution, and the blank contained only 100 μL of MH medium. Three replicate wells were set up for each experiment, and each experiment was repeated three times. The MIC and all concentrations above the MIC of bacterial solution coated on MHA solid medium were placed into 37 °C incubator incubation for 18 h. The lowest concentration resulting in no colony growth was taken as the minimum bactericidal concentration (MBC).

TNF-α = assay: Cytokine release in LPS-treated RAW264.7 cells, ELISA; type: cell-based, mouse
Experimental: (§2) RAW 264.7 mouse macrophages were cultured in DMEM medium (Gibco, New York, NY, USA). containing 10% FBS (TransGen Biotech, Beijing, China) and 1% penicillin-streptomycin (Biosharp, Guangzhou, China) and were seeded into 6-well plates at a cell density of 10^5 cells/mL. After cell adhesion, 1 μg/mL LPS (Solarbio, Beijing, China) and different concentrations of Brevinin-1BW (0, 1, 2, 3, and 4 μg/mL) were incubated for 24 h. Culture supernatants were collected, and the contents of TNFα, IL-6, and IL-1β were determined with enzyme-linked immunosorbent assay (BOSTER, Wuhan, China). All cells were washed twice with precooled PBS, total cellular RNA was extracted using the RNAsimple Total RNA Extraction kit (TIANGEN, Beijing, China), and total RNA concentration and purity were determined using a Thermo Fisher NanoDropOne nucleic acid protein spectrophotometer. HiScript II 1st Strand cDNA Synthesis Kit (Vazyme, Nanjing, China) synthesized cDNA, and we performed real-time PCR using Hieff® qPCR SYBR Green Master Mix (No Rox) (YEASEN, Shanghai, China). The primer sequences for Beta-actin (β-Actin), interleukins (IL-6, IL-1β), tumor necrosis factor (TNF-α), and nitric oxide synthase (iNOS) are shown in Table 6. Cells incubated without peptide and/or LPS were used as negative control. All experiments were repeated three times.

IL-1β = assay: as above; type: cell-based, mouse; conditions: 4 μg/mL peptide, 1 μg/mL LPS, RAW264.7, 24 h, ELISA of supernatant
Experimental: as §2

IL-6 = assay: as above; type: cell-based, mouse
Experimental: as §2

[1] = system: C. koseri (CI 1611SED223); assay: microbe, parasite or virus in culture; type: cell-based, Citrobacter koseri; conditions: 18 h
Experimental: as §1

[2] = system: K. pneumoniae (ATCC700603); assay: microbe, parasite or virus in culture; type: cell-based, Klebsiella pneumoniae; conditions: ATCC700603, 18 h
Experimental: as §1

S. aureus (ATCC 25923) = type: cell-based, Staphylococcus aureus; conditions: ATCC 25923, 1 h
Experimental: The temperature, serum, and pH stability of antimicrobial peptide Brevinin-1BW was investigated. S. aureus (ATCC 25923) was used to determine its stability. The antimicrobial peptide solution was prepared and placed at −20 °C, 4 °C, 37 °C, 60 °C, and 100 °C for 1 h. The MIC was measured with 96-well plate method to detect the effect of temperature. […] The pH stability was achieved by inoculating S. aureus into MH medium and culturing them with shaking to reach the logarithmic growth phase. This was then diluted to 10^6 CFU/mL. Brevinin-1BW was incubated in PBS at various pH values, pH = 2 or 12, for 1 h at 37 °C. The minimal inhibitory concentrations (MIC) of the peptides were then determined. All the above experiments were repeated more than three times.

S. aureus mature biofilm = assay: Biofilm clearance, crystal violet; type: cell-based, Staphylococcus aureus; conditions: S. aureus 24 h biofilm
Experimental: Biofilm clearance of Brevinin-1BW was determined using a 96-well plate assay by first inoculating 100 µL of S. aureus bacterial suspension (5 × 10^5 CFU/mL) and incubating for 24 h at 37 °C. They were washed three times with sterile PBS. […] After 24 h of incubation, the cells were washed three times with sterile PBS. Methanol was added and fixed for 0.5 h and dried aseptically. A 1% crystal violet solution was added for 0.5 h and washed three times with sterilized deionized water. Absolute ethanol dissolved the biofilm. Absorbance was measured at 600 nm. Experiments were repeated four times independently.

ABTS radical scavenging = conditions: at 200 μg/mL, room temperature, 6 min, absorbance 734 nm
Experimental: ABTS^+ scavenging capacity: A 7 mM ABTS (Med Chem Express, NJ, USA) solution and 140 mM potassium persulfate (Aladdin, Shanghai, China) solution were prepared. A 5 mL volume of ABTS was taken and mixed with 88 μL of potassium persulfate before being placed in the dark at room temperature for 14 h to form the ABTS radical stock solution. The ABTS radical stock solution was then diluted with 95% ethanol by volume to reach an OD734 nm = 0.7. Then, 10 μL of Brevinin-1BW solution was mixed with 50 μL of ABTS radical stock solution, and the resulting absorbance was measured at 734 nm for 6 min at room temperature, which was recorded as A1. The absorbance of 95% ethanol was measured as A2. The same concentration of vitamin C was used as the positive control. The clearance was calculated according to the following equation: ABTS^+ Clearance Rate%=(A2−A1)/A2×100

CC[C@H](C)[C@@H]1NC(=O)[C@H](CCCCN)NC(=O)[C@@H](NC(=O)[C@H](Cc2ccccc2)NC(=O)[C@@H](NC(=O)[C@@H](NC(=O)[C@@H]2CCCN2C(=O)[C@H](CC(C)C)NC(=O)[C@H](Cc2ccccc2)NC(=O)[C@H](CO)NC(=O)[C@H](C)NC(=O)[C@H](C)NC(=O)[C@H](CC(C)C)NC(=O)CNC(=O)[C@H](C)NC(=O)[C@H](CC(C)C)NC(=O)[C@H](CC(C)C)NC(=O)[C@@H]2CCCN2C(=O)[C@H](CC(C)C)NC(=O)[C@@H](N)Cc2ccccc2)[C@@H](C)O)[C@@H](C)CC)CSSC[C@@H](C(=O)O)NC(=O)[C@H](CCCCN)NC(=O)[C@H](CCCNC(=N)N)NC(=O)[C@H](CO)NC1=O [Brevinin-1BW] (H-FLPLLAGLAASFLPTIFCKISRKC-OH; disulfide 18-24)
MBC (E. faecalis (ATCC29212)): 12.5 µg/mL (≈ 4.79 µM)
MIC (E. faecalis (ATCC29212)): 3.125 µg/mL (≈ 1.2 µM)
decrease of TNF-α release (TNF-α): 87.31%
decrease of IL-1β release (IL-1β): 91.46%
decrease of IL-6 release (IL-6): 77.82%
MBC [1]: >100 µg/mL
MIC [1]: 50 µg/mL (≈ 19.2 µM)
MBC [2]: >100 µg/mL
MIC [2]: >100 µg/mL
MIC after temperature treatment (S. aureus (ATCC 25923)): 6.25 µg/mL (≈ 2.4 µM)
MIC after pH treatment (S. aureus (ATCC 25923); pH 2): 6.25 µg/mL
MIC after pH treatment (S. aureus (ATCC 25923); pH 12): 6.25 µg/mL
clearance rate of the mature biofilm (S. aureus mature biofilm; 0.5 × MIC): 50.02%
clearance rate of the mature biofilm (S. aureus mature biofilm; 2 × MIC): 60.99%
ABTS radical scavenging (ABTS radical scavenging): less than 20%
